This passage reports inhibition and IC50 results from patent publication US10093630B2, “Pyrazole compounds and methods of making and using same” (ABIDE THERAPEUTICS, INC., priority 2014, dated 2018).

Where two headings read alike, the source gives them in different places. Where only a bound is given, the exact number is not on record here.

Experiment in all cases: In vitro competitive activity-based protein profiling (gel-based, FP-Rh or HT-01 probe)
What all share (format): biochemical

One assay has as its target T1, ABHD6 (Mus musculus, UniProt Q8R2Y0).
T1 construct: Proteomes (mouse brain membrane fraction or cell lysates); from tissue; host or cells: mouse brain membrane fraction (or cell lysates, not specified)
T1 sequence (Q8R2Y0 1-336): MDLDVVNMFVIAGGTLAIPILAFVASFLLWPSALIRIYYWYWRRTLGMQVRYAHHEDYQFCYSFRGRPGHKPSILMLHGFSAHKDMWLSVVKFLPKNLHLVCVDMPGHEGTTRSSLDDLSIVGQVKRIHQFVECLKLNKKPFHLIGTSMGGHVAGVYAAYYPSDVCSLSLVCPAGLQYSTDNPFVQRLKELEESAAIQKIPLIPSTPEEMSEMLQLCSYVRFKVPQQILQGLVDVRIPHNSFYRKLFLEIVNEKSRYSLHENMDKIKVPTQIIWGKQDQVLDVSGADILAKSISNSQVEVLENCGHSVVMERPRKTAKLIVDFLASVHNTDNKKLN
To be noted: for inhibition at 1 µM: 1 μM inhibitor, read-out: % Inhibition at 1 μM, C = ABHD6; for inhibition at 10 µM: 10 μM inhibitor, read-out: % Inhibition at 10 μM, C = ABHD6; for IC50: mouse brain membrane fraction or cell lysates, 30 min preincubation at 37° C., read-out: Mouse (IC50 value, nM) ABHD6. In outline: (§1)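 Competitive labelling format in mouse brain membrane fractions or lysates at 1.0 mg/mL total protein: compounds preincubate 30 min at 37° C, activity probe FP-Rh or HT-01 then reacts 30 min at 37° C. Gel band fluorescence gives target activity.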

The target of the next assay is T2, FAAH (Mus musculus, UniProt O08914).
T2 construct: Proteomes (mouse brain membrane fraction or cell lysates); from tissue; host or cells: mouse brain membrane fraction (or cell lysates, not specified)
T2 sequence (O08914 1-579): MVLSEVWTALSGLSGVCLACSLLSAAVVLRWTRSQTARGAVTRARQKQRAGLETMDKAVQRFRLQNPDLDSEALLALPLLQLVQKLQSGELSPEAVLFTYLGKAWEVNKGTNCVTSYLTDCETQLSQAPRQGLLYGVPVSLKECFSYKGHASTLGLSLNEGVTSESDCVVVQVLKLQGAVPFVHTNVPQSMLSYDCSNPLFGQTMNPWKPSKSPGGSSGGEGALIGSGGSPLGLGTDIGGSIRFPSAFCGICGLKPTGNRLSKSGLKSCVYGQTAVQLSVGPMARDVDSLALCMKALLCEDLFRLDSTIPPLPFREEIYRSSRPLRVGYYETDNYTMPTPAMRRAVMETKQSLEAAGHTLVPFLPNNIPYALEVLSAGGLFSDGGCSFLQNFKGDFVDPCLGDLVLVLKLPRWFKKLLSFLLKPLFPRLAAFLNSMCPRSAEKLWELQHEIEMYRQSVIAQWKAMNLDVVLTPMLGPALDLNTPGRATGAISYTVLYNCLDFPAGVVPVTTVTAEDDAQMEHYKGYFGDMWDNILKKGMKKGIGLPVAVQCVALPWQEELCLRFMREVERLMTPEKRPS
To be noted: for inhibition at 1 µM: 1 μM inhibitor, read-out: % Inhibition at 1 μM, B = FAAH; for inhibition at 10 µM: 10 μM inhibitor, read-out: % Inhibition at 10 μM, B = FAAH; for IC50: mouse brain membrane fraction or cell lysates, 30 min preincubation at 37° C., read-out: Mouse (IC50 value, nM) FAAH. In outline:
as §1

The target of a further assay is T3, MAGL (Mus musculus, UniProt O35678).
T3 construct: Proteomes (mouse brain membrane fraction or cell lysates); from tissue; host or cells: mouse brain membrane fraction (or cell lysates, not specified)
T3 sequence (O35678 1-303): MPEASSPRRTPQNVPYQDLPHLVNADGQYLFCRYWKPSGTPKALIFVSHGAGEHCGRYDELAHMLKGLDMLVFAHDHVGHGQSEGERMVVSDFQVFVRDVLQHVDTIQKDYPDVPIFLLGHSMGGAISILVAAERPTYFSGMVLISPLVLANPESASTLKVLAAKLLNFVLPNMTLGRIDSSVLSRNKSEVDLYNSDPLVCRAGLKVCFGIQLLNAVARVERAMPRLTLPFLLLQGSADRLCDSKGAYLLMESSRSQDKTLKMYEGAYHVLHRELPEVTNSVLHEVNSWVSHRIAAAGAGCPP
The following applies: for inhibition at 1 µM: 1 μM inhibitor; for inhibition at 10 µM: 10 μM inhibitor; for IC50: mouse brain membrane fraction or cell lysates, 30 min preincubation at 37° C., read-out: Mouse (IC50 value, nM) MAGL. Put shortly:
as §1

The target of another assay is T4, PLA2G7 (Mus musculus, UniProt Q60963).
T4 construct: Proteomes (mouse brain membrane fraction or cell lysates); from tissue; host or cells: mouse brain membrane fraction (or cell lysates, not specified)
T4 sequence (Q60963 22-440): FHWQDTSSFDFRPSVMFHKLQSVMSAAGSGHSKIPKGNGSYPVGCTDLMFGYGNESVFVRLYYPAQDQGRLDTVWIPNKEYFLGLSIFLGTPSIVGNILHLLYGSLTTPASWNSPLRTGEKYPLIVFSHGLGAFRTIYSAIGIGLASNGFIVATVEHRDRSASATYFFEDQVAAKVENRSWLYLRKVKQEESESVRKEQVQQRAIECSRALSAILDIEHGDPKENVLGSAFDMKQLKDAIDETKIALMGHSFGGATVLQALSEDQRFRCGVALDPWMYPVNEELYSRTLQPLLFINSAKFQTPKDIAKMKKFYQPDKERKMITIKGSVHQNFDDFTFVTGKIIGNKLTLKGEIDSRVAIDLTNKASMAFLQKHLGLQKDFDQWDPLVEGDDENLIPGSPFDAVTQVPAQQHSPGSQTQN
To be noted: for inhibition at 1 µM: 1 μM inhibitor, read-out: % Inhibition at 1 μM, D = PLA2G7; for inhibition at 10 µM: 10 μM inhibitor, read-out: % Inhibition at 10 μM, D = PLA2G7; for IC50: mouse brain membrane fraction or cell lysates, 30 min preincubation at 37° C. Put shortly:
as §1

For orientation: inhibition means how much of the control response was suppressed. The IC50 is the concentration at which inhibition is half-maximal. `CCN(Cc1cccc(OC)c1)C(=O)n1cc(C(F)(F)F)cn1` [Example 250, N-Ethyl-N-(3-methoxybenzyl)-4-(trifluoromethyl)-1H-pyrazole-1-carboxamide]: the inhibition at 1 µM on ABHD6 (gel-based competitive ABPP) is 25 to 75%; on FAAH (gel-based competitive ABPP), > 75%; on MAGL (gel-based competitive ABPP), > 75%; at PLA2G7 (gel-based competitive ABPP), < 25%. Further, the inhibition at 10 µM at ABHD6 (gel-based competitive ABPP), on FAAH (gel-based competitive ABPP), on MAGL (gel-based competitive ABPP) and at PLA2G7 (gel-based competitive ABPP) was > 75% throughout. Besides, the IC50 is > 1000 nM on ABHD6, < 100 nM on FAAH and > 1000 nM at MAGL.

On to `CCN(Cc1ccc(Cl)cc1)C(=O)n1cc(C(F)(F)F)cn1` [Example 253, N-(4-Chlorobenzyl)-N-ethyl-4-(trifluoromethyl)-1H-pyrazole-1-carboxamide], for which the inhibition at 1 µM is < 25% at ABHD6 (gel-based competitive ABPP), > 75% on FAAH (gel-based competitive ABPP), 25 to 75% on MAGL (gel-based competitive ABPP) and < 25% at PLA2G7 (gel-based competitive ABPP). The IC50 on ABHD6 is > 1000 nM; on FAAH, < 100 nM; on MAGL, > 1000 nM; at PLA2G7, > 1000 nM.

`O=C(c1cnn(C(=O)N2CCN(Cc3ccncn3)CC2)c1)N1CCC1` [Example 90, Azetidin-1-yl(1-(4-(pyrimidin-4-ylmethyl)piperazine-1-carbonyl)-1H-pyrazol-4-yl)methanone]: the inhibition at 1 µM at ABHD6 and at PLA2G7 was < 25% in each case. Also, the inhibition at 10 µM on ABHD6 was > 75%; at FAAH, 25 to 75%; on MAGL, < 25%; on PLA2G7, > 75%.

On to `CCN(Cc1ccc(N2CCOCC2)cc1)C(=O)n1cc(C#N)cn1` [Example 263, 4-Cyano-N-ethyl-N-(4-morpholinobenzyl)-1H-pyrazole-1-carboxamide], for which the inhibition at 1 µM on ABHD6 (gel-based competitive ABPP) is 25 to 75%; at FAAH (gel-based competitive ABPP), > 75%; on MAGL (gel-based competitive ABPP), > 75%; at PLA2G7 (gel-based competitive ABPP), < 25%. The IC50 on ABHD6 is > 1000 nM; at FAAH, < 100 nM; at MAGL, 100 to 1000 nM; on PLA2G7 it was > 1000 nM.

Regarding `Cc1cnn(C(=O)N(C)CCN(C)C(=O)c2ccccc2)c1` [Example 172, N,4-Dimethyl-N-(2-(N-methylbenzamido)ethyl)-1H-pyrazole-1-carboxamide], the inhibition at 10 µM at ABHD6, on FAAH, at MAGL and on PLA2G7 was < 25% throughout.

On to `N#Cc1cnn(C(=O)N2CCN(Cc3cccc(Oc4ccccc4)c3)CC2)c1` [Example 295, 1-(4-(3-Phenoxybenzyl)piperazine-1-carbonyl)-1H-pyrazole-4-carbonitrile], for which the inhibition at 1 µM is > 75% at ABHD6 (gel-based competitive ABPP), > 75% on FAAH (gel-based competitive ABPP), > 75% at MAGL (gel-based competitive ABPP) and < 25% at PLA2G7 (gel-based competitive ABPP).

Take `CCN(Cc1ccc(C)cc1)C(=O)n1cc(C)cn1` [Example 257, N-Ethyl-4-methyl-N-(4-methylbenzyl)-1H-pyrazole-1-carboxamide]: the inhibition at 1 µM at ABHD6 (gel-based competitive ABPP), at FAAH (gel-based competitive ABPP), on MAGL (gel-based competitive ABPP) and at PLA2G7 (gel-based competitive ABPP) was < 25% in each case.

For the compound `CN(CCN(C)C(=O)n1cccn1)C(=O)OC(C)(C)C` [Example 28, tert-Butyl methyl(2-(N-methyl-1H-pyrazole-1-carboxamido)ethyl)carbamate], the inhibition at 1 µM at ABHD6, on FAAH, on MAGL and on PLA2G7 was < 25% in each case. The inhibition at 10 µM is 25 to 75% at ABHD6, 25 to 75% on FAAH, 25 to 75% at MAGL and < 25% on PLA2G7.

For the compound `O=C(c1cnn(C(=O)N2CCN(Cc3ccncc3)CC2)c1)N1CCCC1` [Example 79, (4-(Pyridin-4-ylmethyl)piperazin-1-yl)(4-(pyrrolidine-1-carbonyl)-1H-pyrazol-1-yl)methanone], the inhibition at 1 µM at ABHD6 was 25 to 75%; at PLA2G7 it was < 25%. The inhibition at 10 µM at ABHD6 was > 75%; at FAAH it was 25 to 75%; at MAGL it was < 25%; at PLA2G7, > 75%.

As for `O=C(c1cnn(C(=O)N2CCN(Cc3cncnc3)CC2)c1)N1CCOCC1` [Example 56, (4-(Morpholine-4-carbonyl)-1H-pyrazol-1-yl)(4-(pyrimidin-5-ylmethyl)piperazin-1-yl)methanone], the inhibition at 1 µM on ABHD6 and on PLA2G7 was < 25% each time. The inhibition at 10 µM was > 75% at ABHD6, < 25% on FAAH, < 25% at MAGL and > 75% on PLA2G7.

As to `CCN(Cc1ccccc1C)C(=O)n1cc(Cl)cn1` [Example 132, 4-Chloro-N-(2-methylbenzyl)-N-ethyl-1H-pyrazole-1-carboxamide], the inhibition at 1 µM on ABHD6, at FAAH, on MAGL and at PLA2G7 was < 25% throughout.

For the compound `N#Cc1cnn(C(=O)N2CCN(Cc3ccc(OCc4ccccc4)cc3)CC2)c1` [Example 21, 1-(4-(4-(Benzyloxy)benzyl)piperazine-1-carbonyl)-1H-pyrazole-4-carbonitrile], the inhibition at 1 µM was > 75% at ABHD6, > 75% at FAAH, > 75% on MAGL and < 25% on PLA2G7. Also, the inhibition at 10 µM on ABHD6, on FAAH, at MAGL and on PLA2G7 was > 75% each time. For the same compound, the IC50 on ABHD6, on FAAH and on MAGL was < 100 nM throughout.
